Reference: patent US8785421B1, “Use of vitamin D in dairy mastitis treatment” (The United States of America as represented by the …, priority 2011, dated 2014)

Key:
S. uberis = assay: Experimental S. uberis intramammary infection (mastitis) treated by intramammary infusion after each milking; assay type: in vivo, cows; conditions: for reduction in bacterial load: 100 μg in 10-ml FBS after each milking, vs FBS sham control
Experimental: Seven of the animals were treated after each milking with 100 μg of 25(OH)D3 in 10-ml fetal bovine serum (FBS), the other seven were sham treated with 10-ml FBS only. […] The lower bacterial load in the 25(OH)D3 treated animals and therefore a likely reduction of pyrogens explains the reduction in fever seen in the treated group. The level of bovine serum albumin (BSA) in the milk is used as an indicator of changes in the mammary vascular permeability in the gland and typically increases with an acute infection. […] Fewer bacteria in the treated group (FIG. 1) leads to less tissue damage (FIG. 3) and leads to less pyrogens going systemic (FIG. 2). Also, after the fourth day of the infection two cows (out of 6) in the 25D3 had no infection, whereas, all six were infected at this time point in the control treated group.

Pseudomonas = assay: Mastitis-infected cow with chronic Pseudomonas infection treated by intramammary infusion; assay type: in vivo; conditions: 100 ug infusions twice a day in the infected gland; after 2 treatments; from thousands of bacteria per ml; detection limit 100 cfu/ml; FIG. 4
Experimental: After weeks of various conventional treatment the cow was treated with 25(OH)D3 as described in Example 1, with 100 ug infusions twice a day in the infected gland. The treatment of this animal with 25(OH)D3 caused the bacterial load to go from thousands of bacteria per ml to at or below our detection limit of 100 cfu/ml after 2 treatments (FIG. 4).

Cyp24A1 = Cyp24A1 gene expression in milk cells after intramammary infusion into an infected mammary quarter; assay type: in vivo; conditions: single 100 μg infusion into infected mammary quarter of two cows; compared to cells obtained prior to infusion

C=C1CC[C@H](O)C/C1=C/C=C1\CCC[C@]2(C)[C@@H]([C@H](C)CCCC(C)(C)O)CC[C@@H]12 [25(OH)D3, 25-hydroxy vitamin D3]
reduction in bacterial load (S. uberis; day 2 of the experiment): 2-4 log
reduction in bacterial load (S. uberis; days 4 and 5 post infection): 1.5-2 log
cows with no infection (S. uberis; after the fourth day of the infection, all six control cows were infected): two
level of bovine serum albumin (BSA) in the milk (S. uberis; indicator of mammary vascular permeability, treated vs control, FIG. 3): not statistically significant
bacterial counts in infected glands (S. uberis; repeated measures analysis, significant difference (p<0.05) at day 2 AM and day 2 PM, FIG. 1): significantly (p<0.05) reduced
rectal temperatures (S. uberis; treated vs control cows at two time points (p<0.05), FIG. 2): significantly lower
bacterial load (Pseudomonas): ≤ 100 cfu/ml
gene expression of Cyp24A1 (Cyp24A1): increased
